What follows are targets tested with Nc1nc2c(ncn2[C@@H]2O[C@H](COP(=O)(O)OP(=O)(O)OP(=O)(O)O)[C@@H](O)[C@H]2O)c(=O)[nH]1 [guanosine triphosphate] (assay: pEC50 of GTP-induced change in protein thermal stability (2D-TPP)).
Protocol: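 2D thermal proteome profiling in Jurkat crude lysate. Lysate was treated 10 min at room temperature with Na-GTP (0, 0.001, 0.01, 0.1, 0.5 mM), heated to 12 temperatures (42-63.9 °C) for 3 min, and soluble protein was quantified by TMT10 LC-MS/MS. pEC50 is the median over replicates of dose-response fits (FDR-controlled hits).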
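Wherever pEC50 of ATP-induced change in protein thermal stability (2D-TPP) is given: lysate dosed with Na-ATP at 0 0.005 0.05 0.5 and 2 mM.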

Chain of UniProt O15439 (O15439 whole entry): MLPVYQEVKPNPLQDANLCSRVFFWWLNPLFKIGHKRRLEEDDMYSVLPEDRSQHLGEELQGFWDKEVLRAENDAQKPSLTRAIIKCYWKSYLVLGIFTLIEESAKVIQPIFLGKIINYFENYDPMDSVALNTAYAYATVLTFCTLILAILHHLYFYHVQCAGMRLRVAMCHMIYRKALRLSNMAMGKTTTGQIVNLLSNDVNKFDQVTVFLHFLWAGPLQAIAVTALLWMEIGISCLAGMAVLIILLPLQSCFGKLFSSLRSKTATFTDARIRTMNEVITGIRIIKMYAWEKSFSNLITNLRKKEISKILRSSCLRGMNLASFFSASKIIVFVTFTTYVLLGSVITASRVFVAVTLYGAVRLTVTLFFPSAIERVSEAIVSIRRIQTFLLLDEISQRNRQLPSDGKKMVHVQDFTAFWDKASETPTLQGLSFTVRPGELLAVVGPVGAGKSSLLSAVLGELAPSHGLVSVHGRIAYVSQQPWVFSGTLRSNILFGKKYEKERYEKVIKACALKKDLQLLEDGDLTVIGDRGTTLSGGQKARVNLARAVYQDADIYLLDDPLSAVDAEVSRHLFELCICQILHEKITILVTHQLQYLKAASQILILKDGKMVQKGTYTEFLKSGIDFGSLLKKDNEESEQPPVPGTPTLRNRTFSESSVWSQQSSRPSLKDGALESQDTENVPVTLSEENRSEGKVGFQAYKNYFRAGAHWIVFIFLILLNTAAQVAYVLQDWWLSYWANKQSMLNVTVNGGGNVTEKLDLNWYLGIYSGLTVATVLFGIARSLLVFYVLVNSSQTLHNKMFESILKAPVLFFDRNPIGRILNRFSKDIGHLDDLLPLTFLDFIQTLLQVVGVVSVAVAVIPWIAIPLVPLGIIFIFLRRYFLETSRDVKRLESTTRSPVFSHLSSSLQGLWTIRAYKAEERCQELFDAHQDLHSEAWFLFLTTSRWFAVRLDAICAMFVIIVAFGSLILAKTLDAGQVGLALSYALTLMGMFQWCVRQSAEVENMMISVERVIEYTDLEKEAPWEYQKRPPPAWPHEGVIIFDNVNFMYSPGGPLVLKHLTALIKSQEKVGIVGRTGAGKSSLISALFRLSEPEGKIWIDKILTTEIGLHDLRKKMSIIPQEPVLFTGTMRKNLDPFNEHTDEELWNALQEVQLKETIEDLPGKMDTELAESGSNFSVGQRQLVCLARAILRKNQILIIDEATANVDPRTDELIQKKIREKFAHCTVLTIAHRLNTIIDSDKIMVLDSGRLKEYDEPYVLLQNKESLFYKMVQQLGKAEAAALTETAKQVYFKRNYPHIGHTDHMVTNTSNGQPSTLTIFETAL
Chain of UniProt O95573 (O95573 whole entry): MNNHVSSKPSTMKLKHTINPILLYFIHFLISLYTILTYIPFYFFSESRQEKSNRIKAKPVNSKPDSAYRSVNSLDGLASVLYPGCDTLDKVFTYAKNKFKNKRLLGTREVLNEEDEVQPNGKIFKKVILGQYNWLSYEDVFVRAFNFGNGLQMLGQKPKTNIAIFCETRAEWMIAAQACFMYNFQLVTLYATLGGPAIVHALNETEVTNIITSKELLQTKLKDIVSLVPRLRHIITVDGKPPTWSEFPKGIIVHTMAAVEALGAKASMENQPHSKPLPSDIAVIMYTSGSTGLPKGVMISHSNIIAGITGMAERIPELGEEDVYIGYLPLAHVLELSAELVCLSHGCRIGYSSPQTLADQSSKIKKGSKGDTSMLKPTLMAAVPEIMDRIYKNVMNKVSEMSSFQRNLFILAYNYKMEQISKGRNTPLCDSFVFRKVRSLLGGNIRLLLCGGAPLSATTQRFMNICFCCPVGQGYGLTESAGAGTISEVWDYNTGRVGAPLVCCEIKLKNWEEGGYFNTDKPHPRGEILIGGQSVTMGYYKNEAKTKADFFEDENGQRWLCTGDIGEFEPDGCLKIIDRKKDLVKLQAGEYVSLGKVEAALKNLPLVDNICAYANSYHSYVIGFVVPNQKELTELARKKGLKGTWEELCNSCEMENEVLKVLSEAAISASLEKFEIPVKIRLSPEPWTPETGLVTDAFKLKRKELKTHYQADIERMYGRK
Chain of UniProt Q9Y4W6 (Q9Y4W6 whole entry): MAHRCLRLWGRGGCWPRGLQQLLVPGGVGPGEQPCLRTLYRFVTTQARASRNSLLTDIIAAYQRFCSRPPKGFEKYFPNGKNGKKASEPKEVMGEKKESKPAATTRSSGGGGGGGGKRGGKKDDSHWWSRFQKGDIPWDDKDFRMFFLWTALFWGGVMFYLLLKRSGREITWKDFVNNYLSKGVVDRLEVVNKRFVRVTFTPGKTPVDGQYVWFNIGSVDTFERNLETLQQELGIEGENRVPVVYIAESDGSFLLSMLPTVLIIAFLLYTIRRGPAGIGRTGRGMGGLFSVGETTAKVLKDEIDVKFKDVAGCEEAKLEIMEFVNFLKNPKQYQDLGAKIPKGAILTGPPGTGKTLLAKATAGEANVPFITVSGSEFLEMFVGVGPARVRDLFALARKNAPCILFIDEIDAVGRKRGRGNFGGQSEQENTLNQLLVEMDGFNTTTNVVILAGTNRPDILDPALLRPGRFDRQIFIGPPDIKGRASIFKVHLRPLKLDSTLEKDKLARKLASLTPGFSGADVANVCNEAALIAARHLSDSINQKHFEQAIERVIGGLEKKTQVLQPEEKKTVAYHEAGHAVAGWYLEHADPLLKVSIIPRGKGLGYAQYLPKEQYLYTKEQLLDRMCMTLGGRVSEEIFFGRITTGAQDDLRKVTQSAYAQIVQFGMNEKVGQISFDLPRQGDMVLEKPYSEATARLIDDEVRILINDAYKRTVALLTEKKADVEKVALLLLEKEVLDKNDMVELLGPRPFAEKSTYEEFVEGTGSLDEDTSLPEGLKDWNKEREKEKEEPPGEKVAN
Chain of UniProt Q8NE71 (Q8NE71 whole entry): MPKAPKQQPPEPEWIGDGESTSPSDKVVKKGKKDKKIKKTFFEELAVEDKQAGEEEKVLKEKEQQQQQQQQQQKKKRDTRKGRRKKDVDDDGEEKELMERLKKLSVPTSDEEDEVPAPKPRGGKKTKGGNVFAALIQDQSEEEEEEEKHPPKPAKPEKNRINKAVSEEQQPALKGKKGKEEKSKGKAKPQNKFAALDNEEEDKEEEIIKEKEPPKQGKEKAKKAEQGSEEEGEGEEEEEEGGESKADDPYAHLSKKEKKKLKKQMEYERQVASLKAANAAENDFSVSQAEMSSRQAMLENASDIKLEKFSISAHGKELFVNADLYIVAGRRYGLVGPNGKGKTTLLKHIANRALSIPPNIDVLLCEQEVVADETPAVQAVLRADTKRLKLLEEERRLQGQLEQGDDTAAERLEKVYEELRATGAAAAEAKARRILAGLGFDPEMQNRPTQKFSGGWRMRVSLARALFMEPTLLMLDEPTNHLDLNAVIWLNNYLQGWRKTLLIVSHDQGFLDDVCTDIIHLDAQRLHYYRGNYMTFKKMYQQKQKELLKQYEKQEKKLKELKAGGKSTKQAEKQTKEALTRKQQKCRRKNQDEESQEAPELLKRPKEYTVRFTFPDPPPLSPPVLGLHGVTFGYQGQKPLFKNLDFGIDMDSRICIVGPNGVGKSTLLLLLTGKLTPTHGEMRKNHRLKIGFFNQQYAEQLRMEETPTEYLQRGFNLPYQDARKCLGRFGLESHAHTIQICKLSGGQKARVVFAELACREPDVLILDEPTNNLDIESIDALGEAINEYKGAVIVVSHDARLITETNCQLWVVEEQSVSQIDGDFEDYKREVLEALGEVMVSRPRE
Chain of UniProt Q9NUB1 (Q9NUB1 whole entry): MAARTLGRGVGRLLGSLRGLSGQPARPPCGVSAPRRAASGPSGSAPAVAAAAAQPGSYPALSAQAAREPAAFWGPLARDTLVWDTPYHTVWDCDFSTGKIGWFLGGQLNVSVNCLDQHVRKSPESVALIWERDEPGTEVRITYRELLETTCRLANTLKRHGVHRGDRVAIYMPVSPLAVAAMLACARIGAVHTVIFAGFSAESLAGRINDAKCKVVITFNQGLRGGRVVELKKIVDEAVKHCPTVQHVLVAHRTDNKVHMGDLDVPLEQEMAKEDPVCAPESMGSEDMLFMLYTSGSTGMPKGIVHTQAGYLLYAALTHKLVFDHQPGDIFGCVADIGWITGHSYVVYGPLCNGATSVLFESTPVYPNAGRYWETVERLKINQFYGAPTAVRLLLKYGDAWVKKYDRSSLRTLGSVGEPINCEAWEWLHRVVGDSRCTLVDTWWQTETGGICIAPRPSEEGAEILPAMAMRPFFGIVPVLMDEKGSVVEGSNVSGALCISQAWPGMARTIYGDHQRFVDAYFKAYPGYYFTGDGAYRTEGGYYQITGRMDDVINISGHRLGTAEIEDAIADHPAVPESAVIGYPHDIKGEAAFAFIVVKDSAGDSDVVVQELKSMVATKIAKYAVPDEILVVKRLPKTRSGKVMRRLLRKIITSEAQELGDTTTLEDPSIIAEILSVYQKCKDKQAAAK
Chain of UniProt Q9UIJ7 (Q9UIJ7 whole entry): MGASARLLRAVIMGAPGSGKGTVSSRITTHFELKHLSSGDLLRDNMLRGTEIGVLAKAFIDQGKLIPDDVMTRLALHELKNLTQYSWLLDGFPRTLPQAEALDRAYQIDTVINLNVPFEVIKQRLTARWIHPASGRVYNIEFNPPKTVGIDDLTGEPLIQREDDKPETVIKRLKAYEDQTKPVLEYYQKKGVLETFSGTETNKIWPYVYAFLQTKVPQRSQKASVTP
Chain of UniProt Q92688 (Q92688 whole entry): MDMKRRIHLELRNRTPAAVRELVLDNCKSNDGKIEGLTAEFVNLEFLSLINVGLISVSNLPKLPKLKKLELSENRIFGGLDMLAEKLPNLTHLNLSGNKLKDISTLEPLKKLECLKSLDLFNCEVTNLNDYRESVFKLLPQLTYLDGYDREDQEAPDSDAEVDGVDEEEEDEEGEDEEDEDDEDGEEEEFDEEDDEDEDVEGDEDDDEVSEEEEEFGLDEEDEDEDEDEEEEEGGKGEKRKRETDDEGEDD
Chain of UniProt P08134 (P08134 whole entry): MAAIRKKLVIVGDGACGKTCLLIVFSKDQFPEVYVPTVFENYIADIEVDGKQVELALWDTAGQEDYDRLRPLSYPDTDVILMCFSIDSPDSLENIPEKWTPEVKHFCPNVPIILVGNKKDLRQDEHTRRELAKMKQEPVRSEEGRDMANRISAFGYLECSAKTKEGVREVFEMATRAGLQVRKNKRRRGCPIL

Target | pEC50
ABCB7 (effect direction: stabilized) (UniProt O75027) | 3.82
ACSL3 (effect direction: stabilized) (UniProt O95573) | 3.9
ACSS1 (effect direction: stabilized) (UniProt Q9NUB1) | < 3.3
H2AFY (effect direction: stabilized) (UniProt O75367) | 3.67
HBS1L (effect direction: stabilized) (UniProt Q9Y450) | 4.21
HSPD1 (effect direction: destabilized) (UniProt P10809) | 4.2
KRAS (effect direction: stabilized) (UniProt P01116) | 4.32
LSG1 (effect direction: stabilized) (UniProt Q9H089) | 3.88
MFN1 (effect direction: stabilized) (UniProt Q8IWA4) | 3.96
MMAA (effect direction: stabilized) (UniProt Q8IVH4) | 4.08
NRAS (effect direction: stabilized) (UniProt P01111) | 4.01
OPA1 (effect direction: stabilized) (UniProt O60313) | 3.71
PANK3 (effect direction: stabilized) (UniProt Q9H999) | 3.41
POFUT1 (effect direction: stabilized) (UniProt Q9H488) | 3.78
RAB3A (effect direction: stabilized) (UniProt P20336) | 4
RAB5A (effect direction: stabilized) (UniProt P20339) | 3.97
RAB23 (effect direction: stabilized) (UniProt Q9ULC3) | 4.02
RAB33B (effect direction: stabilized) (UniProt Q9H082) | 4.12
RALA (effect direction: stabilized) (UniProt P11233) | 4.33
RALB (effect direction: stabilized) (UniProt P11234) | 4.14

Target | pEC50
RFC3 (effect direction: stabilized) (UniProt P40938) | 3.85
RFC5 (effect direction: stabilized) (UniProt P40937) | 3.8
RRAS (effect direction: stabilized) (UniProt P10301) | 3.84
SACS (effect direction: stabilized) (UniProt Q9NZJ4) | 3.82
SAFB (effect direction: destabilized) (UniProt Q15424) | 4.81
SAR1A (effect direction: stabilized) (UniProt Q9NR31) | 3.87
TUBE1 (effect direction: stabilized) (UniProt Q9UJT0) | 4.31
UniProt A3KMH1 (effect direction: stabilized) | 3.98
UniProt O75582 (effect direction: stabilized) | 4.16
UniProt O95747 (effect direction: stabilized) | 3.79
UniProt P60953 (effect direction: stabilized) | 3.59
UniProt P62330 (effect direction: stabilized) | 3.98
UniProt P62834 (effect direction: stabilized) | 4.38
UniProt P84085 (effect direction: stabilized) | 4.13
UniProt P84095 (effect direction: stabilized) | 3.83
UniProt Q5JTY5 (effect direction: stabilized) | 4.22
UniProt Q9BSD7 (effect direction: stabilized) | 3.96
UniProt Q9Y3L5 (effect direction: stabilized) | 3.83
UniProt Q08170 (effect direction: stabilized) | 3.79
UniProt Q13243 (effect direction: stabilized) | 3.6

The next lines start with the values.

pEC50 | Target
3.94 | ABCC4 (effect direction: stabilized) (UniProt O15439)
3.96 | ABCF1 (effect direction: stabilized) (UniProt Q8NE71)
3.93 | ACTR3 (effect direction: stabilized) (UniProt P61158)
3.89 | AFG3L2 (effect direction: stabilized) (UniProt Q9Y4W6)
3.46 | AK3 (effect direction: stabilized) (UniProt Q9UIJ7)
3.75 | ANP32B (effect direction: stabilized) (UniProt Q92688)
4.27 | GSPT2 (effect direction: stabilized) (UniProt Q8IYD1)
3.49 | H2AFX (effect direction: stabilized) (UniProt P16104)
4.17 | NKIRAS2 (effect direction: stabilized) (UniProt Q9NYR9)
3.93 | NUBPL (effect direction: stabilized) (UniProt Q8TB37)
3.55 | PANK4 (effect direction: stabilized) (UniProt Q9NVE7)
3.79 | PCK2 (effect direction: stabilized) (UniProt Q16822)
3.88 | RAB1B (effect direction: stabilized) (UniProt Q9H0U4)
3.85 | RAB3D (effect direction: stabilized) (UniProt O95716)
4.23 | RAB11B (effect direction: stabilized) (UniProt Q15907)
3.93 | RAB12 (effect direction: stabilized) (UniProt Q6IQ22)
3.65 | RAB18 (effect direction: stabilized) (UniProt Q9NP72)
3.92 | RAB27A (effect direction: stabilized) (UniProt P51159)
3.8 | RAB37 (effect direction: stabilized) (UniProt Q96AX2)
3.98 | RAC2 (effect direction: stabilized) (UniProt P15153)
4.47 | RAP2A (effect direction: stabilized) (UniProt P10114)
3.84 | RECQL (effect direction: destabilized) (UniProt P46063)
3.91 | RFC4 (effect direction: stabilized) (UniProt P35249)
4.39 | RNGTT (effect direction: stabilized) (UniProt O60942)

pEC50 | Target
3.79 | RSRC2 (effect direction: stabilized) (UniProt Q7L4I2)
3.34 | SAFB2 (effect direction: destabilized) (UniProt Q14151)
4.16 | SAR1B (effect direction: stabilized) (UniProt Q9Y6B6)
3.98 | SRP54 (effect direction: stabilized) (UniProt P61011)
4.12 | SRP68 (effect direction: stabilized) (UniProt Q9UHB9)
4.01 | SRP72 (effect direction: stabilized) (UniProt O76094)
3.74 | TAP1 (effect direction: stabilized) (UniProt Q03518)
3.4 | TUBA1A (effect direction: stabilized) (UniProt Q71U36)
4.41 | TUFM (effect direction: stabilized) (UniProt P49411)
< 3.3 | UCK1 (effect direction: stabilized) (UniProt Q9HA47)
4.3 | UQCRC2 (effect direction: stabilized) (UniProt P22695)
3.86 | UniProt O00506 (effect direction: stabilized)
4.27 | UniProt O14966 (effect direction: stabilized)
4.43 | UniProt P08134 (effect direction: stabilized)
3.86 | UniProt P48730 (effect direction: stabilized)
3.9 | UniProt P51149 (effect direction: stabilized)
4.67 | UniProt P61020 (effect direction: stabilized)
4.18 | UniProt P61221 (effect direction: stabilized)
3.69 | UniProt P62805 (effect direction: stabilized)
3.84 | UniProt P63000 (effect direction: stabilized)
3.93 | UniProt P78527 (effect direction: stabilized)
3.94 | UniProt P84103 (effect direction: stabilized)
3.66 | UniProt Q9NZ01 (effect direction: stabilized)
4.09 | UniProt Q86Y56 (effect direction: stabilized)

These targets were tested with Nc1ncnc2c1ncn2[C@@H]1O[C@H](COP(=O)(O)OP(=O)(O)OP(=O)(O)O)[C@@H](O)[C@H]1O [adenosine triphosphate] (assay: pEC50 of ATP-induced change in protein thermal stability (2D-TPP)).
In short: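 pEC50 was obtained by fitting dose-response curves for each replicate over pairs of adjacent temperatures, and hits were assigned using permutation-based false discovery rate control. The input came from Jurkat crude lysate treated with five concentrations including vehicle (10 min, room temperature), heated at 12 temperatures from 42 to 63.9 °C for 3 min, then given NP40 and benzonase (60 min, 4 °C). After ultracentrifugation, soluble protein was quantified by TMT LC-MS/MS as median-normalised fold changes versus vehicle per temperature, across three independent experiments.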

Target | pEC50
ABCB7 (effect direction: stabilized) (UniProt O75027) | 3.49
ACSL3 (effect direction: stabilized) (UniProt O95573) | 3.91
ACSS1 (effect direction: stabilized) (UniProt Q9NUB1) | 3.42

Second part, the target after the results:

pEC50 | Target
3.41 | ABCC4 (effect direction: stabilized) (UniProt O15439)
4.2 | ABCF1 (effect direction: stabilized) (UniProt Q8NE71)
4.25 | ACTR3 (effect direction: stabilized) (UniProt P61158)
4.18 | AFG3L2 (effect direction: stabilized) (UniProt Q9Y4W6)
3.22 | AK3 (effect direction: stabilized) (UniProt Q9UIJ7)
2.89 | ANP32B (effect direction: stabilized) (UniProt Q92688)
